Source: patent publication US20070276032A1, “Use of 8-Prenylnaringenin for Hormone Replacement Therapy” (priority 2003, published 2007)

Key:
ovariectomized rats [1] = experiment: Uterus histology, luminal epithelium cell height in ovariectomized rats (Example 3); type: in vivo, Sprague-Dawley rats; conditions: ovariectomized rat; at 1.77 mg/kg and 18 mg/kg
Description: A post-study histological examination was performed. The formalin fixed uteri were embedded in paraffin, cut into 5 μm transverse sections and were stained with haematoxylin eosin. The sections were then evaluated quantitatively for luminal epithelium cell height.

ovariectomized rats [2] = experiment: Ex vivo BMD (pQCT) of proximal tibia, 2S(−) 8-PN in ovariectomized rats (Example 3); parameters: species or system Sprague-Dawley rats; conditions: OVX rats; for Total BMD, MEAN / Total BMD, MEDIAN / Trabecular BMD, MEAN / Trabecular BMD, MEDIAN: left proximal tibia ex vivo, s.c. 4 weeks
Description: The aim of the study was to examine bone and uterine effects of a 4-week treatment with 2S(−) 8-Prenylnaringenin (8-PN) in 3-month-old ovariectomized rats. […] At the end of the study, uterine weight and ex vivo bone mineral density (BMD) of tibia were measured.
A total of 30 female 13-14-week-old Sprague-Dawley rats were used in the study. The animals were randomized into 5 groups, with 6 rats/group. Group 1 was sham-operated (SHAM) and groups 2-5 were ovariectomized (OVX).
Treatments with the vehicle or test substance started on the day following operation. […] The animals were sacrificed one day after the last dosing. At the end of the study, left tibiae were excised for ex vivo BMD measurement (pQCT) at proximal tibia and uteri were excised for the determination of absolute and relative weights. In addition, samples for the determination of 2S(−)8-Prenylnaringenin concentration were taken from all dosing solutions on the day when they were prepared and on the last day of use. The data of body weights, relative uterine weights and BMD were analyzed with one-way analysis of variance.
Bone mineral density measurement was carried out by pQCT (XCT-960A, Stratec, Germany). The bone specimens were thawed before measurement. Six 1 mm-thick sections of the proximal tibia (2 mm below the epiphyseal growth plate) were scanned at 0.5 mm intervals using a voxel size of 0.148 mm. Total and trabecular BMD (mg/cm^3) were measured. After bone densitometry, the specimens were wrapped back to saline saturated gauzes and stored at −20° C.

ovariectomized rats [3] = experiment: Relative uterus weight, 8-PN racemic, 2S(−) 8-PN and estradiol hemihydrate in ovariectomized rats (Example 4); type: in vivo, Sprague-Dawley rats; conditions: OVX rats
Description: (§1) The aim of the study was to directly compare the effects of Prenylnaringenin (racemate) and 2S(−) 8-Prenylnaringenin to the effects of estradiol hemihydrate on bone mineral density and uterine weight on 3-month-old ovariectomized rats using identical formulations. In addition, the effects of estradiolhemihydrate in two vehicles (oily, aqueous) were examined for influence of formulations. The substances were administered subcutaneously(s.c.) seven days a week beginning the day after ovariectomy. At the end of the study, uterine weight and bone mineral density (BMD) of tibia were measured.
(§2) Forty-one female Sprague-Dawley rats, 12-14 weeks of age were randomized into six groups, 6-8 animals in each. Five groups were ovariectomized (OVX) and one group was sham-operated (SHAM). Treatments started on the day following operation and continued for 28 days. The animals were treated s.c. once a day seven times a week as follows. Group 1 (SHAM vehicle group) and group 2 (OVX vehicle group) were given the vehicle 30% hydroxypropyl-β-cyclodextrin (HP-β-CD). Groups 3 and 4 were administered 4 μg/kg/d of estradiol hemihydrate in vehicle benzyl benzoate/ricinus oil (B/R) and in vehicle HP-β-CD, respectively. Groups 5 and 6 were given 20 mg/kg/d of 2S(−)8-Prenylnaringenin and racemic 8-Prenylnaringenin, respectively, both in vehicle HP-β-CD. At the end of the study, left tibiae were excised for the ex vivo BMD […] were taken from all dosing solutions on the first and last day of use.
(§3) Vehicle 1 (used in the groups 1 and 2): 30% hydroxypropyl-β-cyclodextrin and 0.3% NaCl (w/v), 5% ethanol (v/v) in Aqua sterilisata, pH 7.4.
(§4) Vehicle 2 (used when preparing dosing solutions of the groups 4, 5 and 6): 30% hydroxypropyl-β-cyclodextrin and 0.3% NaCl (w/v) in Aqua sterilisata, pH 7.4.
(§5) Vehicle 3 (used when preparing a dosing solution of the group 3): benzyl benzoate/ricinus oil (B/R) 1+4, v/v.

ovariectomized rats [4] = experiment: Trabecular density of proximal tibia, 8-PN racemic, 2S(−) 8-PN and estradiol hemihydrate in ovariectomized rats (Example 4); type: in vivo, Sprague-Dawley rats; conditions: OVX rats; s.c. 28 days; 20 mg/kg/d in HP-β-CD
Description: as §1, §2, §3, §4, §5

ERE-Luc = experiment: Estrogenic activity in the estrogen reporter mouse ERE-Luc model, luciferase activity in organs (Example 5); type: in vivo, mice
Description: In order to avoid experimental noise male animals were used.
Fourtyfive heterozygous male ERE-Luc mice of two months of age were fed with soy-free diet for two weeks before assigning them to each experimental group then all the mice were injected intraperitoneally (i.p.) with 250 μl of an oily solution containing the following compounds: • 1. Experimental group 1: vehicle • 2. Experimental group 2: 17β-estradiol at 1.5 μg/kg • 3. Experimental group 3: 2S(−)-8-PN at 30 mg/kg • 4. […] Experimental group 5: genistein at 30 mg/kg.
The treatment was carried out in experimental groups of three mice each and repeated three times (therefore numbers reflect the average of […] determinations on a total of 9 animals).
Six hours after the injection, mice were sacrificed by cervical dislocation and organs were dissected and frozen on dry ice. The following organs were analyzed for lucifererase activity by enzymatic assay: prostate, liver, bone, brain.
Data represent means ±standard deviation of N=9 animals per group.
Analysis of variance (ANOVA) for overall comparison was followed by Tukey test for paired comparisons. All statistical procedures were carried out with Systat and SAS (*P<0.05; **P<0.01).

[5] = s.c. 28 days, 20 mg/kg/d in HP-β-CD, calculated as percentage of body weight
[6] = ERE-Luc mice, at the dosages used

With `CC(C)=CCc1c(O)cc(O)c2c1O[C@H](c1ccc(O)cc1)CC2=O` [2S(−)8-PN, 2S(−) 8-Prenylnaringenin] as the compound, how does the “luminal epithelial cell height” value (ovariectomized rats [1]) read?
Its value is “weak stimulation of luminal epithelial cell height”.

And the “effect on OVX-induced decreases in BMD at the highest dose” value (ovariectomized rats [2]; 18 mg/kg/d s.c., 4 weeks)?
The value was “completely inhibited OVX-induced effects”.

And the “effect on OVX-induced decreases in total and trabecular BMD” value (ovariectomized rats [2]; dose range 0.67-18 mg/kg/d s.c., 4 weeks)?
The value was “prevented the OVX-induced decreases in both total and trabecular BMD at the proximal tibial metaphysis dose dependently”.

And the “Total BMD, MEAN” value (ovariectomized rats [2]; 0.67 mg/kg/d)?
Its value is 561.1 mg/mL.

And the “Total BMD, MEDIAN” value (ovariectomized rats [2]; 0.67 mg/kg/d)?
The value was 569.2 mg/mL.

What about the “Trabecular BMD, MEAN” value (ovariectomized rats [2]; 0.67 mg/kg/d) of the same compound?
The value was 319.1 mg/mL.

What about the “Trabecular BMD, MEDIAN” value (ovariectomized rats [2]; 0.67 mg/kg/d) of the same compound?
Its value is 318.7 mg/mL.

What about the “Total BMD, MEAN” value (ovariectomized rats [2]; 1.77 mg/kg/d) of the same compound?
The value was 581.5 mg/mL.

What about the “Total BMD, MEDIAN” value (ovariectomized rats [2]; 1.77 mg/kg/d) of the same compound?
Its value is 568.1 mg/mL.

And the “Trabecular BMD, MEAN” value (ovariectomized rats [2]; 1.77 mg/kg/d)?
Its value is 330.9 mg/mL.

What about the “Trabecular BMD, MEDIAN” value (ovariectomized rats [2]; 1.77 mg/kg/d) of the same compound?
Its value is 329.4 mg/mL.

What about the “Total BMD, MEAN” value (ovariectomized rats [2]; 18 mg/kg/d) of the same compound?
Its value is 636.5 mg/mL.

What about the “Total BMD, MEDIAN” value (ovariectomized rats [2]; 18 mg/kg/d) of the same compound?
Its value is 635.4 mg/mL.

And the “Trabecular BMD, MEAN” value (ovariectomized rats [2]; 18 mg/kg/d)?
Its value is 411.8 mg/mL.

What about the “Trabecular BMD, MEDIAN” value (ovariectomized rats [2]; 18 mg/kg/d) of the same compound?
Its value is 396.6 mg/mL.

What about the “effect on the uterus and body weight compared with estradiol in the same vehicle (HP-β-CD)” value (ovariectomized rats [3]; 20 mg/kg/d vs estradiol 4 μg/kg/d, same bone effective dose) of the same compound?
The value was “much lower effect on the uterus and body weight than estradiol at the same bone effective dose”.

What about the “Relative uterus weight, Mean” value (ovariectomized rats [3]; [5]) of the same compound?
The value was 0.067.

And the “Relative uterus weight, Median” value (ovariectomized rats [3]; [5])?
Its value is 0.067.

What about the “Trabecular density at left proximal tibia, Mean” value (ovariectomized rats [4]) of the same compound?
Its value is 352 mg/cm3.

What about the “Trabecular density at left proximal tibia, Median” value (ovariectomized rats [4]) of the same compound?
The value was 352 mg/cm3.

What about the “agonist profile in bone and prostate compared with the other compounds” value (ERE-Luc; [6]) of the same compound?
The value was “much stronger agonist profile in bone and prostate when compared to the other compounds”.

What about the “estrogenic activity in liver compared with the other compounds” value (ERE-Luc; [6]) of the same compound?
The value was “almost identical to that of the other compounds”.

And the “Luciferase activity, Bone” value (ERE-Luc; male ERE-Luc mice, i.p. 30 mg/kg, six hours after the injection, controls 2.8)?
Its value is 5.5 ** arbitrary units.

And the “Luciferase activity, Brain” value (ERE-Luc; male ERE-Luc mice, i.p. 30 mg/kg, six hours after the injection, controls 6.5)?
Its value is 8.0 arbitrary units.

What about the “Luciferase activity, Liver” value (ERE-Luc; male ERE-Luc mice, i.p. 30 mg/kg, six hours after the injection, controls 7.6) of the same compound?
The value was 12.5 ** arbitrary units.
